pEC50: −log10 of the molar value. Where a name gives a salt, the structure may show the parent alone.
How the values were obtained:
Calu-6 = assay: Compounds cellular killing in Calu-6; type: cell-based, human; settings: Calu-6, 6 days, Cell Titer-Glo
Description: (§1) Seeding cells A375 (1E3/well) or Calu-6 (2E3/well) into 96-well plate (Greiner: 655090), 100 ul/well. Incubation at 37° C., 5% CO2, overnight.
(§2) Adding the fresh growth-medium containing the varying concentrations of compounds, 50 ul/well.
(§3) Incubation at 37° C., 5% CO2, 6 days.
(§4) The cell viability detected by Cell Titer-Glo (Promega, G7573). Add 70 µL/well of CellTiter-Glo® Reagent in each well.
(§5) Allow the plates to incubate at room temperature for 10 minutes to stabilize luminescent signal.
(§6) Analyze with Microplate Reader.
(§7) Seeding cells A375 ([…] or Calu-6 (2E3/well) into 96-well plate (Greiner: 655090), 100 ul/well. Incubation at 37° C., […], overnight.

A375 = assay: Compounds cellular killing in A375; type: cell-based, human; settings: for pEC50 / Emax / Emax (%): A375, 6 days, Cell Titer-Glo
Description: as §1, §2, §3, §4, §5, §6, §7

Structure (SMILES)	pEC50 (Calu-6; Homo sapiens, Calu-6, […])	Emax (Calu-6; Homo sapiens, Calu-6, […])	pEC50 (A375; Homo sapiens, A-375, […])	Emax (A375; Homo sapiens, A-375, […])	also measured
CC[C@@]1(O)C(=O)OCc2c1cc1n(c2=O)Cc2c-1nc1cc(F)c(C)c3c1c2[C@@H](NC(=S)NCCO)CC3 [Example 2-25, 1-((1S,9S)-9-ethyl-5-fluoro-9-hydroxy-4-methyl-10,13-dioxo-2,3,9,10,13,15-hexahydro-1H,12H-benzo[de]pyrano[3′,4′:6,7]indolizino[1,2-b]quinolin-1-yl)-3-(2-hydroxyethyl)thiourea]	10.00	98.2%	9.05	99.9%	–
CC[C@@]1(O)C(=O)OCc2c1cc1n(c2=O)Cc2c-1nc1cc(F)c(C)c3c1c2[C@@H](NC(=O)[C@@H]1C[C@@H](O)CN1C)CC3 [Example 2-36, (2S,4R)—N-((1S,9S)-9-ethyl-5-fluoro-9-hydroxy-4-methyl-10,13-dioxo-2,3,9,10,13,15-hexahydro-1H,12H-benzo[de]pyrano[3′,4′:6,7]indolizino[1,2-b]quinolin-1-yl)-4-hydroxy-1-methylpyrrolidine-2-carboxamide]	8.21	97.7%	7.86	97.8%	–
CC[C@@]1(O)C(=O)OCc2c1cc1n(c2=O)Cc2c-1nc1cc(F)c(C)c3c1c2[C@@H](NC(=O)C1CCC1CO)CC3 (stereo partly drawn) [Example 2-2, N-((1S,9S)-9-ethyl-5-fluoro-9-hydroxy-4-methyl-10,13-dioxo-2,3,9,10,13,15-hexahydro-1H,12H-benzo[de]pyrano[3′,4′:6,7]indolizino[1,2-b]quinolin-1-yl)-2-(hydroxymethyl)cyclobutane-1-carboxamide]	8.89	98.7%	8.28	99.9%	–
CC[C@@]1(O)C(=O)OCc2c1cc1n(c2=O)Cc2c-1nc1ccc(F)c3c1c2[C@@H](N)CC3 [Example 1-12, (1S,9S)-1-amino-9-ethyl-4-fluoro-9-hydroxy-1,2,3,9,12,15-hexahydro-10H,13H-benzo[de]pyrano[3′,4′:6,7]indolizino[1,2-b]quinoline-10,13-dione]	8.68	99.5%	8.26	99.8%	–
CC[C@@]1(O)C(=O)OCc2c1cc1n(c2=O)Cc2c-1nc1cc3c(c4c1c2[C@@H](N)CC4)OC(F)(F)O3 [Example 1-16, (1S,10S)-1-amino-10-ethyl-5,5-difluoro-10-hydroxy-1,2,3,10,13,16-hexahydro-11H,14H-benzo[de][1,3]dioxolo[4,5-g]pyrano[3′,4′:6,7]indolizino[1,2-b]quinoline-11,14-dione 2,2,2-trifluoroacetate salt]	9.22	98.5%	8.80	98.5%	–
CC[C@@]1(O)C(=O)OCc2c1cc1n(c2=O)Cc2c-1nc1cc3c(c4c1c2C(CCCO)CC4)OCO3 (single isomer, unassigned) [Example 2-60]	–	–	–	–	pEC50 (Calu-6): 9.70; Emax (%) (Calu-6): 98.2%; pEC50 (A375): 9.10; Emax (%) (A375): 100.0%; potency compared with compound 1-A and 1-C (A375; Table 18, A375 and Calu-6): higher potency than compound 1-A and 1-C
CC[C@@]1(O)C(=O)OCc2c1cc1n(c2=O)Cc2c-1nc1cc(F)c(C)c3c1c2C(CNCCCO)CC3 (stereo partly drawn) [Example 2-55, (9S)-9-ethyl-5-fluoro-9-hydroxy-1-(((3-hydroxypropyl)amino)methyl)-4-methyl-1,2,3,9,12,15-hexahydro-10H,13H-benzo[de]pyrano[3′,4′:6,7]indolizino[1,2-b]quinoline-10,13-dione]	8.55	99.3%	8.14	99.8%	–
CC[C@@]1(O)C(=O)OCc2c1cc1n(c2=O)Cc2c-1nc1cc3c(c4c1c2[C@@H](N)CC4)OCO3 [Example 1-10, (1S,10S)-1-amino-10-ethyl-10-hydroxy-1,2,3,10,13,16-hexahydro-11H,14H-benzo[de][1,3]dioxolo[4,5-g]pyrano[3′,4′:6,7]indolizino[1,2-b]quinoline-11,14-dione]	–	97.7%	–	–	pEC50 (Calu-6; Homo sapiens): 9.52; pEC50 (A375; Homo sapiens, A-375): 9.40; Emax (A375; Homo sapiens, A-375): 97.7%
CCc1c2c(nc3ccc(O)cc13)-c1cc3c(c(=O)n1C2)COC(=O)[C@]3(O)CC [Example 1-C, reference compound]	–	–	–	–	pEC50 (Calu-6; Homo sapiens): 8.59; pEC50 (A375; Homo sapiens, A-375): 8.37; Emax (A375; Homo sapiens, A-375): 99.5%
CC[C@@]1(O)C(=O)OCc2c1cc1n(c2=O)Cc2c-1nc1cc(F)c(C)c3c1c2[C@@H](NC(=O)C(F)(F)CO)CC3 [Example 2-3, N-((1S,9S)-9-ethyl-5-fluoro-9-hydroxy-4-methyl-10,13-dioxo-2,3,9,10,13,15-hexahydro-1H,12H-benzo[de]pyrano[3′,4′:6,7]indolizino[1,2-b]quinolin-1-yl)-2,2-difluoro-3-hydroxypropanamide]	9.10	98.5%	8.68	100%	–
CC[C@@]1(O)C(=O)OCc2c1cc1n(c2=O)Cc2c-1nc1cc(Cl)c(C)c3c1c2[C@@H](NC(=O)C(C)(C)CO)CC3 [Example 2-8, N-((1S,9S)-5-chloro-9-ethyl-9-hydroxy-4-methyl-10,13-dioxo-2,3,9,10,13,15-hexahydro-1H,12H-benzo[de]pyrano[3′,4′:6,7]indolizino[1,2-b]quinolin-1-yl)-3-hydroxy-2,2-dimethylpropanamide]	9.40	99.3%	8.92	98.6%	–
CC[C@@]1(O)C(=O)OCc2c1cc1n(c2=O)Cc2c-1nc1cc(F)c(C)c3c1c2[C@@H](NC(=O)C(C)(F)CO)CC3 (stereo partly drawn) [Example 2-41, N-((1S,9S)-9-ethyl-5-fluoro-9-hydroxy-4-methyl-10,13-dioxo-2,3,9,10,13,15-hexahydro-1H,12H-benzo[de]pyrano[3′,4′:6,7]indolizino[1,2-b]quinolin-1-yl)-2-fluoro-3-hydroxy-2-methylpropanamide]	9.22	98.2%	8.82	99.9%	–
CC[C@@]1(O)C(=O)OCc2c1cc1n(c2=O)Cc2c-1nc1cc3c(c4c1c2[C@@H](NC(=O)C(C)(C)CO)CC4)OCO3 [Example 2-35, N-((1S,10S)-10-ethyl-10-hydroxy-11,14-dioxo-2,3,10,11,14,16-hexahydro-1H,13H-benzo[de][1,3]dioxolo[4,5-g]pyrano[3′,4′:6,7]indolizino[1,2-b]quinolin-1-yl)-3-hydroxy-2,2-dimethylpropanamide]	9.70	98.6%	8.80	100%	–
CC[C@@]1(O)C(=O)OCc2c1cc1n(c2=O)Cc2c-1nc1cc(F)c(OC)c3c1c2[C@@H](NC(=O)CO)CC3 [Example 2-4, N-((1S,9S)-9-ethyl-5-fluoro-9-hydroxy-4-methoxy-10,13-dioxo-2,3,9,10,13,15-hexahydro-1H,12H-benzo[de]pyrano[3′,4′:6,7]indolizino[1,2-b]quinolin-1-yl)-2-hydroxyacetamide]	8.31	99.7%	7.74	99.3%	–
CC[C@@]1(O)C(=O)OCc2c1cc1n(c2=O)Cc2c-1nc1cc(F)c(C)c3c1c2C(CCCCO)CC3 (stereo partly drawn) [Example 2-48, (9S)-9-ethyl-5-fluoro-9-hydroxy-1-(4-hydroxybutyl)-4-methyl-1,2,3,9,12,15-hexahydro-10H,13H-benzo[de]pyrano[3′,4′:6,7]indolizino[1,2-b]quinoline-10,13-dione]	10.00	98.7%	9.40	99.5%	–
CC[C@@]1(O)C(=O)OCc2c1cc1n(c2=O)Cc2c-1nc1cc(F)c(C)c3c1c2[C@@H](N1CCCC1CO)CC3 (single isomer, unassigned) [Example 2-50]	–	–	–	–	Emax (%) (Calu-6): 99.2%; pEC50 (A375): 9.52; Emax (%) (A375): 99.5%
CC[C@@]1(O)C(=O)OCc2c1cc1n(c2=O)Cc2c-1nc1cc(F)c(C)c3c1c2[C@@H](NC(=O)[C@@H]1C[C@@H](O)CN1C(C)=O)CC3 [Example 2-17, (2S,4R)-1-acetyl-N-((1S,9S)-9-ethyl-5-fluoro-9-hydroxy-4-methyl-10,13-dioxo-2,3,9,10,13,15-hexahydro-1H,12H-benzo[de]pyrano[3′,4′:6,7]indolizino[1,2-b]quinolin-1-yl)-4-hydroxypyrrolidine-2-carboxamide]	7.35	94.6%	6.91	94.9%	–
CC[C@@]1(O)C(=O)OCc2c1cc1n(c2=O)Cc2c-1nc1cc(F)c(C)c3c1c2C(N1CCC1CO)CC3 (single isomer, unassigned) [Example 2-57]	–	99.3%	–	100%	pEC50 (Calu-6): 9.15; pEC50 (A375): 8.72
CC[C@@]1(O)C(=O)OCc2c1cc1n(c2=O)Cc2c-1nc1cc(F)c(C)c3c1c2[C@@H](NC(=O)OCCO)CC3 [Example 2-6, 2-hydroxyethyl ((1S,9S)-9-ethyl-5-fluoro-9-hydroxy-4-methyl-10,13-dioxo-2,3,9,10,13,15-hexahydro-1H,12H-benzo[de]pyrano[3′,4′:6,7]indolizino[1,2-b]quinolin-1-yl)carbamate]	–	96.9%	–	–	pEC50 (Calu-6; Homo sapiens): 9.52; pEC50 (A375; Homo sapiens, A-375): 8.85; Emax (A375; Homo sapiens, A-375): 99.9%
CC[C@@]1(O)C(=O)OCc2c1cc1n(c2=O)Cc2c-1nc1cc(F)c(C)c3c1c2[C@@H](NC(=O)C1CCCC1O)CC3 (single isomer, unassigned) [Example 2-9]	–	98.6%	–	100%	pEC50 (Calu-6): 9.15; pEC50 (A375): 8.72
CC[C@@]1(O)C(=O)OCc2c1cc1n(c2=O)Cc2c-1nc1cc(F)cc3c1c2[C@@H](NC(=O)CO)CC3 [Example 2-31, N-((1S,9S)-9-ethyl-5-fluoro-9-hydroxy-10,13-dioxo-2,3,9,10,13,15-hexahydro-1H,12H-benzo[de]pyrano[3′,4′:6,7]indolizino[1,2-b]quinolin-1-yl)-2-hydroxyacetamide]	8.38	98.9%	8.21	98.9%	–

— patent US20250295798A1, “LIGAND-DRUG CONJUGATE OF EXATECAN ANALOGUE, AND MEDICAL USE THEREOF” (BeiGene Switzerland GmbH, priority 2022, published 2025)
